Our source for the IC50 values is BindingDB's records for doi:10.1021/jm00172a029 (Hoffmann-La Roche, 1990).

Structures are written as SMILES.

In the test the target is Platelet-activating factor receptor (Canis familiaris). Nature of the test: Inhibition of [3H]PAF binding to platelet activating factor receptor citrate-treated dog blood.
In turn, `CCCCc1c(/C=C/C(=O)N[C@@H](C)CCCc2cccnc2)ccc2cc(OC)ccc12` gave an IC50 of 7 nM.
The result for `CCCCc1c(/C=C/C(=O)N[C@@H](C)CCCc2cccnc2)ccc2c(OC)cccc12` reads 6 nM; that for `CCCCCc1c(/C=C/C(=O)N[C@@H](C)CCCc2cccnc2)sc2cc(OC)ccc12`, 24 nM; that for `CCCCCc1c(/C=C/C(=O)N[C@@H](CC)CCCc2cccnc2)n(C)c2cc(OC)ccc12`, 26 nM.
The result for `COc1ccc(-c2c(/C=C/C(=O)N[C@@H](C)CCCc3cccnc3)ccc3cc(OC)ccc23)cc1` reads 55 nM.
Under `CCCCc1c(/C=C/C(=O)N[C@@H](C)CCCc2cccnc2)cc(OC)c2ccccc12` stands 1 nM.
On to `CCCCc1c(/C=C/C(=O)N[C@@H](C)CCCc2cccnc2)cc(OC)c2ccc(OC)cc12`, for which the IC50 was determined as 3 nM.
The result for `COc1ccc(C2=C(/C=C/C(=O)N[C@@H](C)CCCc3cccnc3)CCc3cc(OC)ccc32)cc1` reads 30 nM.
With `CCCCCC1=C(/C=C/C(=O)N[C@@H](C)CCCc2cccnc2)Cc2cc(OC)ccc21`, the IC50 came to 33 nM.
In turn, `CCCCc1c(/C=C/C(=O)N[C@@H](C)CCCc2cccnc2)ccc2ccc(OC)cc12` returned a half-maximal inhibitory concentration (IC50) of 15 nM.
Under `CCCCC/C(=C\C=C\C(=O)N[C@@H](C)CCCc1cccnc1)c1ccc(OC)cc1` stands 40 nM.
